Source: article PMC4741798, “Imaging of carbonic anhydrase IX with an ^111In-labeled dual-motif inhibitor” (Oncotarget, 2015)
Several values for one entry are separate records, joined by “and”; a condition that tells them apart may be missing. Equal entries are not always repeated.

Tested on: SK-RC-52 xenografts
Test: Biodistribution in mice bearing SK-RC-52 xenografts
Format: in vivo
Conditions: n = 5; for Biodistribution: Tumor: SK-RC-52 tumor
Protocol: Mice bearing SK-RC-52 xenografts within the lower left flank were injected intravenously with 740 kBq (20 μCi) of [^111In]XYIMSR-01 in 200 μL of PBS. For in vivo competition (binding specificity) studies, tumor-bearing mice were injected with 740 kBq (20 μCi) of [^111In]XYIMSR-01 and 200 nmole of 1 in 200 μL of PBS concurrently. At 1 h, 4 h, 8 h, 24 h and 48 h post-injection, mice were sacrificed by cervical dislocation and the blood was immediately collected by cardiac puncture. Heart, lungs, pancreas, spleen, fat, brain, muscle, small intestines, liver, stomach, kidney, urinary bladder, and tumor were collected. Each organ was weighed and the tissue radioactivity was measured with an automated gamma counter (1282 Compugamma CS, Pharmacia/LKBNuclear, Inc., Mt. Waverly, Vic. Australia). The percentage of injected dose per gram of tissue (% ID/g) was calculated by comparison with samples of a standard dilution of the initial dose. All measurements were corrected for radioactive decay.
Data were expressed as mean ± standard deviation (SD). Prism software (GraphPAD, San Diego, California) was used to determine statistical significance. Statistical significance was calculated using a paired t test. P-values < 0.0001 were considered significant.

[1] = 24 h + Block (co-injected 200 nmole of 1)

CC(CCC(=O)N[C@@H](CC(=O)N[C@@H](CC(=O)N[C@@H](CCCCn1cc(CCCC(=O)Nc2nnc(S(N)(=O)=O)s2)nn1)C(=O)NCCOCCOCCNC(=O)CN1CCN(CC(=O)[O-])CCN(CC(=O)[O-])CCN(CC(=O)[O-])CC1)C(=O)O)C(=O)O)(c1ccc(O)cc1)c1ccc(O)cc1.[111In+3] [[^111In]XYIMSR-01]
Biodistribution: Tumor (1 h post-injection, i.v.): 26 %ID/g and 26.01 ± 5.74 %ID/g | Biodistribution: Bladder (1 h post-injection, i.v.): 4.90 ± 4.96 %ID/g | Biodistribution: Blood (1 h post-injection, i.v.): 1.34 ± 0.17 %ID/g | Biodistribution: Brain (1 h post-injection, i.v.): 1.23 ± 1.10 %ID/g | Biodistribution: Fat (1 h post-injection, i.v.): 1.03 ± 0.24 %ID/g | Biodistribution: Heart (1 h post-injection, i.v.): 5.98 ± 0.53 %ID/g | Biodistribution: Kidney (kid) (1 h post-injection, i.v.): 71.26 ± 8.74 %ID/g | Biodistribution: Liver (1 h post-injection, i.v.): 8.36 ± 0.73 %ID/g | Biodistribution: Lung (1 h post-injection, i.v.): 45.85 ± 19.89 %ID/g | Biodistribution: Muscle (mm) (1 h post-injection, i.v.): 2.34 ± 2.19 %ID/g | Biodistribution: Pancreas (1 h post-injection, i.v.): 3.81 ± 0.72 %ID/g | Biodistribution: Sm. intestine (1 h post-injection, i.v.): 9.37 ± 1.26 %ID/g | Biodistribution: Spleen (1 h post-injection, i.v.): 0.52 ± 0.04 %ID/g | Biodistribution: Stomach (1 h post-injection, i.v.): 16.71 ± 2.46 %ID/g | Tumor/blood ratio (1 h post-injection): 19.7 and 19.7 ± 4.8 | Tumor/kid (kidney) ratio (1 h post-injection): 0.36 ± 0.06 | Tumor/mm (muscle) ratio (1 h post-injection): 12.7 and 12.7 ± 5.8 | Biodistribution: Tumor (4 h post-injection, i.v.): 20.83 ± 6.25 %ID/g | Biodistribution: Bladder (4 h post-injection, i.v.): 2.68 ± 1.89 %ID/g | Biodistribution: Blood (4 h post-injection, i.v.): 0.65 ± 0.06 %ID/g | Biodistribution: Brain (4 h post-injection, i.v.): 0.45 ± 0.06 %ID/g | Biodistribution: Fat (4 h post-injection, i.v.): 0.42 ± 0.22 %ID/g | Biodistribution: Heart (4 h post-injection, i.v.): 2.91 ± 0.45 %ID/g | Biodistribution: Kidney (kid) (4 h post-injection, i.v.): 41.52 ± 6.07 %ID/g | Biodistribution: Liver (4 h post-injection, i.v.): 4.00 ± 0.58 %ID/g | Biodistribution: Lung (4 h post-injection, i.v.): 17.85 ± 3.55 %ID/g | Biodistribution: Muscle (mm) (4 h post-injection, i.v.): 1.01 ± 0.28 %ID/g | Biodistribution: Pancreas (4 h post-injection, i.v.): 1.54 ± 0.40 %ID/g | Biodistribution: Sm. intestine (4 h post-injection, i.v.): 4.27 ± 0.69 %ID/g | Biodistribution: Spleen (4 h post-injection, i.v.): 0.51 ± 0.08 %ID/g | Biodistribution: Stomach (4 h post-injection, i.v.): 7.91 ± 1.28 %ID/g | Tumor/blood ratio (4 h post-injection): 31.9 ± 9.4 | Tumor/kid (kidney) ratio (4 h post-injection): 0.50 ± 0.15 | Tumor/mm (muscle) ratio (4 h post-injection): 21.4 ± 7.2 | Biodistribution: Tumor (8 h post-injection, i.v.): 34.00 ± 15.16 %ID/g | Biodistribution: Bladder (8 h post-injection, i.v.): 2.28 ± 0.51 %ID/g | Biodistribution: Blood (8 h post-injection, i.v.): 0.48 ± 0.02 %ID/g | Biodistribution: Brain (8 h post-injection, i.v.): 0.59 ± 0.09 %ID/g | Biodistribution: Fat (8 h post-injection, i.v.): 0.45 ± 0.08 %ID/g | Biodistribution: Heart (8 h post-injection, i.v.): 2.61 ± 0.35 %ID/g | Biodistribution: Kidney (kid) (8 h post-injection, i.v.): 28.79 ± 21.35 %ID/g | Biodistribution: Liver (8 h post-injection, i.v.): 3.65 ± 0.65 %ID/g | Biodistribution: Lung (8 h post-injection, i.v.): 17.39 ± 8.99 %ID/g | Biodistribution: Muscle (mm) (8 h post-injection, i.v.): 1.09 ± 0.15 %ID/g | Biodistribution: Pancreas (8 h post-injection, i.v.): 1.61 ± 0.28 %ID/g | Biodistribution: Sm. intestine (8 h post-injection, i.v.): 4.31 ± 0.67 %ID/g | Biodistribution: Spleen (8 h post-injection, i.v.): 0.64 ± 0.07 %ID/g | Biodistribution: Stomach (8 h post-injection, i.v.): 8.74 ± 1.26 %ID/g | Tumor/blood ratio (8 h post-injection): 77.0 ± 32.5 | Tumor/kid (kidney) ratio (8 h post-injection): 3.1 ± 3.1 | Tumor/mm (muscle) ratio (8 h post-injection): 34.2 ± 16.0 | Biodistribution: Tumor [1]: 1 %ID/g and 1.41 ± 0.20 %ID/g | Biodistribution: Bladder [1]: 0.20 ± 0.07 %ID/g | Biodistribution: Blood [1]: 0.03 ± 0.00 %ID/g | Biodistribution: Brain [1]: 0.03 ± 0.00 %ID/g | Biodistribution: Fat [1]: 0.02 ± 0.01 %ID/g | Biodistribution: Heart [1]: 0.04 ± 0.01 %ID/g | Biodistribution: Kidney (kid) [1]: 0.68 ± 0.14 %ID/g | Biodistribution: Liver [1]: 0.10 ± 0.02 %ID/g | Biodistribution: Lung [1]: 0.12 ± 0.02 %ID/g | Biodistribution: Muscle (mm) [1]: 0.02 ± 0.00 %ID/g | Biodistribution: Pancreas [1]: 0.03 ± 0.00 %ID/g | Biodistribution: Sm. intestine [1]: 0.08 ± 0.01 %ID/g | Biodistribution: Spleen [1]: 0.08 ± 0.01 %ID/g | Biodistribution: Stomach [1]: 0.14 ± 0.02 %ID/g | Tumor/blood ratio [1]: 45.2 ± 9.7 | Tumor/kid (kidney) ratio [1]: 2.1 ± 0.3
